Reference: US20190307820A1, “COMPOSITIONS AND METHODS OF USING STAT1/3 INHIBITORS WITH ONCOLYTIC HERPES VIRUS” (priority 2016, published 2019)

Tested on: oHSV-1 (G207) in U87 tumors
Experiment: U87 xenograft, C16 with G207: viral DNA qPCR and immunohistochemistry of tumors
Assay type: in vivo, mice
Settings: 5 mg/kg C16, day 13
Method: FIG. 14A is a bar graph showing that C16 triggers oHSV-1 protein expression in microglia/macrophages and enhances virus concentration in glioblastoma in vivo. U87 xenograft mice were treated with vehicle or 5 mg/kg C16 with or without 6×10^6 PFU/ml oHSV-1 (G207) viruses (n=2). Two doses of G207 or vehicle and 4 doses (in every 3 or 4 days) of C16 was administered in total. Tumors were harvested at day 13 post-treatment. Total genomic DNA was extracted from the harvested tumors (n=2) and viral DNA (ICP27) was measured by qPCR (normalized to β-actin). Data shown are relative 2-ΔΔCT value±SE.
5 to 6 weeks old female athymic nude mice were obtained from Harlon laboratories. Human glioma U87 cells were implanted subcutaneously into the lower flank. When tumor size reached ˜75 to 100 mm3, vehicle or C16 (5 mg/kg) was administered intraperitoneally (IP). 2 days (FIG. 14) or 4 days (FIG. 15) after initial C16 administration, vehicle or oHSV-1 were injected intratumourally. Tumor volume was then measured using a caliper (Height×Length×Wide/2). At the end of the experiment, mice were euthanized by using CO2 asphyxiation.
DNA was extracted from 4% paraformaldehyde fixed tumor tissues by using an EZNA tissue DNA kit (Omega Bioteck). […]

In the case of `O=C1Nc2ccc3ncsc3c2/C1=C/c1c[nH]cn1` [C16, 6,8-Dihydro-8-(1H-imidazol-5-ylmethylene)-7H-pyrrolo[2,3-g]benzothiazol-7-one], the “oHSV-1 titer in the tumor mass (viral DNA copy number, qPCR)” value is reported as “significantly enhanced oHSV-1 titer”.
